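Where inhibition never reached the appropriate level, the endpoint shown equals the highest concentration tested. Otherwise, values were interpolated linearly from a five-concentration, 48-hour dose response in 96-well plates. GI50 marks 50% less growth.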 Calls of active or inactive are those of the source. No stated cut-off is given here; in the data, active = GI50 up to about 1.1 µM and inactive = higher.
Tests used:
Assay in all cases: growth of human tumour cells (NCI), 48 h
SR = test system: SR
K562 = test system: K562
RXF 393 = test system: RXF 393
T47D = test system: T47D
HCT-116 = test system: HCT-116
PC-3 = test system: PC-3
MDA-MB-231 = test system: MDA-MB-231
HCT-15 = test system: HCT-15
NCI-H226 = test system: NCI-H226
HOP-92 = test system: HOP-92
SK-MEL-28 = test system: SK-MEL-28
OVCAR-5 = test system: OVCAR-5
UACC-62 = test system: UACC-62
MCF7 = test system: MCF7
SNB-19 = test system: SNB-19
IGROV-1 = test system: IGROV-1
LOX IMVI = test system: LOX IMVI
KM12 = test system: KM12
BT-549 = test system: BT-549
A498 = test system: A498

`Cc1cc(Cl)nc2nc(Cl)c(N)cc12` was tested, and the GI50 (SR) was 2.88 µM (inactive), the GI50 (K562) was 3.23 µM (inactive) and the GI50 (RXF 393) was 8.2 µM (inactive). For the same compound, the GI50 (T47D) was 3.21 µM (inactive), the GI50 (HCT-116) was 2.48 µM (inactive) and the GI50 (PC-3) was 12.1 µM (inactive). For the same compound, the GI50 (MDA-MB-231) was 3.48 µM (inactive), the GI50 (HCT-15) was 1.9 µM and the GI50 (NCI-H226) was 21.5 µM (inactive). For the same compound, the GI50 (HOP-92) was 2.18 µM (inactive), the GI50 (SK-MEL-28) was 2.56 µM (inactive) and the GI50 (OVCAR-5) was 17 µM (inactive). For the same compound, the GI50 (UACC-62) was 2.37 µM (inactive), the GI50 (MCF7) was 1.63 µM (inactive) and the GI50 (SNB-19) was 4.95 µM (inactive). The GI50 (IGROV-1) was 7.87 µM (inactive), the GI50 (LOX IMVI) was 1.91 µM (inactive) and the GI50 (KM12) was 5.32 µM (inactive). The GI50 (BT-549) was 14.6 µM (inactive).
In the case of `N#CC(c1ccccc1)N(CCCCCCN(C(=O)c1ccccc1)C(C#N)c1ccccc1)C(=O)c1ccccc1` (stereo not given), the GI50 (K562) was 35.2 µM (inactive), the GI50 (A498) was 15 µM (inactive) and the GI50 (RXF 393) was 52.1 µM (inactive). For the same compound, the GI50 (T47D) was 28.5 µM (inactive), the GI50 (HCT-116) was 25.1 µM (inactive) and the GI50 (PC-3) was 28.2 µM (inactive). For the same compound, the GI50 (MDA-MB-231) was 47.6 µM (inactive), the GI50 (HCT-15) was 31.3 µM and the GI50 (NCI-H226) was 28.6 µM (inactive). For the same compound, the GI50 (HOP-92) was 16.5 µM (inactive), the GI50 (SK-MEL-28) was 44.4 µM (inactive) and the GI50 (OVCAR-5) was > 100 µM (inactive). For the same compound, the GI50 (UACC-62) was 26.3 µM (inactive), the GI50 (MCF7) was 28.1 µM (inactive) and the GI50 (SNB-19) was 44.2 µM (inactive). The GI50 (IGROV-1) was 52.6 µM (inactive), the GI50 (LOX IMVI) was 29.3 µM (inactive) and the GI50 (KM12) was 38.5 µM (inactive). The GI50 (BT-549) was 31.1 µM (inactive).
With `O=C(NCCC1([N+](=O)[O-])CCN(C(=O)c2ccccc2)CC1)c1ccccc1` the GI50 (SR) was > 100 µM (inactive), the GI50 (K562) was > 100 µM (inactive) and the GI50 (A498) was > 100 µM (inactive). For the same compound, the GI50 (RXF 393) was 67 µM (inactive), the GI50 (T47D) was > 100 µM (inactive) and the GI50 (HCT-116) was > 100 µM (inactive). The GI50 (PC-3) was > 100 µM (inactive), the GI50 (MDA-MB-231) was > 100 µM (inactive) and the GI50 (HCT-15) was greater than 100 µM. The GI50 (NCI-H226) was > 100 µM (inactive), the GI50 (HOP-92) was < 0.01 µM (active) and the GI50 (OVCAR-5) was > 100 µM (inactive). For the same compound, the GI50 (UACC-62) was 57.4 µM (inactive), the GI50 (SNB-19) was > 100 µM (inactive) and the GI50 (IGROV-1) was > 100 µM (inactive). The GI50 (KM12) was > 100 µM (inactive) and the GI50 (BT-549) was > 100 µM (inactive).
For `O=P1(C(O)c2ccccc2)N(Cc2ccccc2)[C@@H]2CCCC[C@H]2N1Cc1ccccc1` (stereo not given in full), the GI50 (SR) was 24.3 µM (inactive), the GI50 (K562) was 53.5 µM (inactive) and the GI50 (RXF 393) was 31.4 µM (inactive). The GI50 (T47D) was 21.9 µM (inactive), the GI50 (HCT-116) was 27.4 µM (inactive) and the GI50 (PC-3) was 24.5 µM (inactive). For the same compound, the GI50 (MDA-MB-231) was 21.3 µM (inactive), the GI50 (HCT-15) was 34.5 µM and the GI50 (NCI-H226) was 24.8 µM (inactive). For the same compound, the GI50 (SK-MEL-28) was > 100 µM (inactive), the GI50 (OVCAR-5) was 24.8 µM (inactive) and the GI50 (UACC-62) was 30.7 µM (inactive). The GI50 (MCF7) was 34.6 µM (inactive), the GI50 (SNB-19) was 56.2 µM (inactive) and the GI50 (IGROV-1) was 28.6 µM (inactive). The GI50 (LOX IMVI) was 17.5 µM (inactive), the GI50 (KM12) was 37.3 µM (inactive) and the GI50 (BT-549) was 50.2 µM (inactive).
For `CC(=O)OC1COC(Nc2nc(NCc3ccccc3)n(C)c(=O)c2N=O)C(OC(C)=O)C1OC(C)=O` (stereo not given), the GI50 (K562) was > 10 µM (inactive), the GI50 (A498) was > 10 µM (inactive) and the GI50 (RXF 393) was > 10 µM (inactive). The GI50 (T47D) was > 10 µM (inactive), the GI50 (HCT-116) was > 10 µM (inactive) and the GI50 (PC-3) was > 10 µM (inactive). For the same compound, the GI50 (MDA-MB-231) was > 10 µM (inactive), the GI50 (HCT-15) was greater than 10 µM and the GI50 (NCI-H226) was > 10 µM (inactive). For the same compound, the GI50 (SK-MEL-28) was > 10 µM (inactive), the GI50 (OVCAR-5) was > 10 µM (inactive) and the GI50 (UACC-62) was > 10 µM (inactive). For the same compound, the GI50 (MCF7) was > 10 µM (inactive), the GI50 (SNB-19) was > 10 µM (inactive) and the GI50 (IGROV-1) was > 10 µM (inactive). For the same compound, the GI50 (LOX IMVI) was > 10 µM (inactive), the GI50 (KM12) was > 10 µM (inactive) and the GI50 (BT-549) was > 10 µM (inactive).
`O=S(=O)(Nc1nccs1)c1ccc([As](=O)(O)O)cc1` was tested, and the GI50 (K562) was > 100 µM (inactive), the GI50 (A498) was > 100 µM (inactive) and the GI50 (RXF 393) was > 100 µM (inactive). For the same compound, the GI50 (T47D) was > 100 µM (inactive), the GI50 (HCT-116) was > 100 µM (inactive) and the GI50 (PC-3) was > 100 µM (inactive). The GI50 (MDA-MB-231) was > 100 µM (inactive), the GI50 (HCT-15) was greater than 100 µM and the GI50 (NCI-H226) was > 100 µM (inactive). For the same compound, the GI50 (HOP-92) was > 100 µM (inactive), the GI50 (SK-MEL-28) was > 100 µM (inactive) and the GI50 (OVCAR-5) was > 100 µM (inactive). For the same compound, the GI50 (UACC-62) was > 100 µM (inactive), the GI50 (MCF7) was > 100 µM (inactive) and the GI50 (SNB-19) was > 100 µM (inactive). The GI50 (IGROV-1) was > 100 µM (inactive), the GI50 (LOX IMVI) was > 100 µM (inactive) and the GI50 (KM12) was > 100 µM (inactive). For the same compound, the GI50 (BT-549) was > 100 µM (inactive).
For `COc1ccc2cc(C(C)C(O)c3cc(F)c(F)c(F)c3F)ccc2c1` (stereo not given), the GI50 (K562) was 30.8 µM (inactive), the GI50 (A498) was > 100 µM (inactive) and the GI50 (T47D) was 53.5 µM (inactive). The GI50 (HCT-116) was > 100 µM (inactive), the GI50 (PC-3) was > 100 µM (inactive) and the GI50 (MDA-MB-231) was > 100 µM (inactive). The GI50 (HCT-15) was greater than 100 µM, the GI50 (NCI-H226) was > 100 µM (inactive) and the GI50 (HOP-92) was 18.6 µM (inactive). The GI50 (SK-MEL-28) was > 100 µM (inactive), the GI50 (OVCAR-5) was > 100 µM (inactive) and the GI50 (UACC-62) was > 100 µM (inactive). The GI50 (MCF7) was > 100 µM (inactive), the GI50 (SNB-19) was > 100 µM (inactive) and the GI50 (IGROV-1) was > 100 µM (inactive). The GI50 (LOX IMVI) was > 100 µM (inactive) and the GI50 (BT-549) was > 100 µM (inactive).
In the case of `CN(C)CCCNC1=C(Cl)C(=O)c2c(O)ccc(O)c2C1=O`, the GI50 (K562) was 3.61 µM (inactive), the GI50 (A498) was > 10 µM (inactive) and the GI50 (T47D) was 2.09 µM (inactive). The GI50 (HCT-116) was 2.26 µM (inactive), the GI50 (PC-3) was 2.54 µM (inactive) and the GI50 (MDA-MB-231) was 2.9 µM (inactive). The GI50 (HCT-15) was 1.8 µM, the GI50 (NCI-H226) was > 10 µM (inactive) and the GI50 (HOP-92) was 8.2 µM (inactive). The GI50 (SK-MEL-28) was 1.52 µM (inactive), the GI50 (OVCAR-5) was 1.59 µM (inactive) and the GI50 (UACC-62) was 1.59 µM (inactive). For the same compound, the GI50 (MCF7) was 1.55 µM (inactive), the GI50 (SNB-19) was 1.94 µM (inactive) and the GI50 (IGROV-1) was 1.77 µM (inactive). The GI50 (LOX IMVI) was 1.67 µM (inactive), the GI50 (KM12) was 2.99 µM (inactive) and the GI50 (BT-549) was 1.6 µM (inactive).
